According to PMC6312923 (Life Science Alliance, 2018):

B1: Cdt2^PIP-3A: Cdt2 with I709, Y712, and F713 all mutated to alanine (protein, UniProt Q9NZJ0 1-730, looked up, variant I709A Y712A F713A)
Denticleless protein homolog: MLFNSVLRQPQLGVLRNGWSSQYPLQSLLTGYQCSGNDEHTSYGETGVPVPPFGCTFSSAPNMEHVLAVANEEGFVRLYNTESQSFRKKCFKEWMAHWNAVFDLAWVPGELKLVTAAGDQTAKFWDVKAGELIGTCKGHQCSLKSVAFSKFEKAVFCTGGRDGNIMVWDTRCNKKDGFYRQVNQISGAHNTSDKQTPSKPKKKQNSKGLAPSVDFQQSVTVVLFQDENTLVSAGAVDGIIKVWDLRKNYTAYRQEPIASKSFLYPGSSTRKLGYSSLILDSTGSTLFANCTDDNIYMFNMTGLKTSPVAIFNGHQNSTFYVKSSLSPDDQFLVSGSSDEAAYIWKVSTPWQPPTVLLGHSQEVTSVCWCPSDFTKIATCSDDNTLKIWRLNRGLEEKPGGDKLSTVGWASQKKKESRPGLVTVTSSQSTPAKAPRAKCNPSNSSPSSAACAPSCAGDLPLPSNTPTFSIKTSPAKARSPINRRGSVSSVSPKPPSSFKMSIRNWVTRTPSSSPPITPPASETKIMSPRKALIPVSQKSSQAEACSESRNRVKRRLDSSCLESVKQKCVKSCNCVTELDGQVENLHLDLCCLAGNQEDLSKDSLGPTKSSKIEGAGTSISEPPSPISPYASESCGTLPLPLRPCGEGSEMVGKENSSPENKNWLLAMAAKRKAENPSPRSPSSQTPNSRRQSGKKLPSPVTITPSSMRKACTAAHRKSQEDFCGPEHSTEL
modifications: FLAG tag
notes: Cdt2 with I709, Y712, and F713 all mutated to alanine

Columns and labels:
Format in all cases: cell-based, human
[1] = tested on: UV-C–damaged sites in MCF7 cells; assay: FRAP of GFP-tagged proteins at sites of local UV-C damage in MCF7 cells
Protocol: (C) MCF7 cells were transfected with the indicated GFP-tagged plasmids and 24 h later they were locally UV-C irradiated (50 J/m^2). 20 min following irradiation, FRAP experiments were conducted at the site of damage and in untreated cells (Fig S1). FRAP data were analysed with easyFRAP. Mean normalized fluorescence intensities at the site of damage as a function of time following photobleaching are shown. (D) MCF7 cells were synchronized in the S phase by treatment with 2-mM thymidine for 24 h. Upon release, cells were transfected with siCdt1 or control siLuc in parallel with a plasmid expressing GFP-tagged Cdt2. Cells were then synchronised in the M phase by treatment with 50 ng/ml nocodazole for 12 h, released into G1 for 5 h, and locally UV-C irradiated (50 J/m^2). 20 min after irradiation, the cells were analysed by FRAP. Mean normalized fluorescence recovery curves at the sites of damage are shown.
To perform micropore UV irradiation, cells were cultured on cover slips, washed twice with PBS, and subsequently covered with an isopore polycarbonate membrane filter (Millipore) with a pore size of either 3 or 5 μm in diameter, and irradiated. UV irradiation was achieved using a UV lamp (SUV-16, As One, Japan) with a dose rate of 0.4 J/m^2·s, which was monitored with a UV radiometer (UVX Radiometer, UVP) at 254 nm, or with a UV box equipped with a UV-C lamp monitored with a VLX-3W radiometer (Vilber Lourmat) at 254 nm (CX-254 sensor). The filter was removed and cells were either fixed or cultured for the indicated time before fixation, and processed for immunofluorescence. For FRAP analysis, cells were cultured for 20 min to allow recruitment to sites of damage before photobleaching.
Cells (HeLa or MCF7) were plated on 35-mm glass-bottom dishes in phenol-red–free medium (Invitrogen). […] A Leica TCS SP5 microscope equipped with a 63x magnification 1.4 NA oil-immersion lens and FRAP booster were used. During FRAP, cells were maintained at 37°C and 5% CO2. A defined circular region of interest with 2 μm diameter (ROI1) was placed in the nucleus and at the recruitment sites. GFP was excited using a 488-nm argon laser line. 50 pre-bleach images were acquired with 3% of the 488-nm line at 60% argon laser intensity, followed by a single bleach pulse on ROI1 using 476-nm and 488-nm laser lines combined at maximum power. In this manner, at least 60% of the fluorescence in ROI1 was bleached successfully. Next, 400 post-bleach images with a 0.052 s interval were recorded. Mean intensities of ROI1, the whole nucleus (ROI2) and an area outside of the nucleus (ROI3) were quantified and exported as .csv format files.

[2] = tested on: chromatin-containing fraction, HEK293 cells; assay: Chromatin fractionation of Cdt2; conditions: stable HEK293, Western blot
Protocol: Figure 6. The Cdt2 PIP box is important for its recruitment to DNA damage sites and replication foci and for poly-ubiquitination activity. (A) HEK293 and stable Cdt2^WT or Cdt2^PIP-3A cells were locally UV irradiated, and stained for XPA and FLAG (Cdt2). XPA-positive spots were examined for FLAG signal, and its frequency was counted (%). More than 50 spots were examined. bar:10 μm. […] Bar: 10 μm. […] (D) Whole-cell extracts were prepared from HEK293 and stably transfected cells of Cdt2^WT or Cdt2^PIP-3A cells, separated into soluble (Sup) and chromatin-containing insoluble (Ppt) fractions, and were examined for indicated proteins. The asterisk indicates nonspecific bands. (E) HEK293 and stably transfected cells of Cdt2^WT or Cdt2^PIP-3A were treated with MG132 for 3 h. Whole-cell extracts (WCE) were prepared, separated into soluble (Sup) and insoluble (Ppt) fractions, and blotted with the indicated antibodies.
Cell extracts were prepared using 0.1% Triton X-100–containing mCSK buffer (200 μg of total protein in 400–800 μl). After centrifugation (17,900g for 10 min at 4°C), soluble and chromatin-containing pellet fractions were obtained. The pellets were washed with ice-cold 0.1% Triton X-100–containing mCSK buffer and subsequently suspended in SDS sample buffer.

[3] = tested on: Cdt1 degradation in S/G2, U2OS cells; assay: Cdt1-positive cells among cyclin A-positive U2OS cells; conditions: siCdt2 and/or siSkp2
Protocol: Next, we examined Cdt1 degradation after the onset of the S phase in the Cdt2^PIP-3A-expressing cells. Cyclin A is present in the S and G2 phase, when Cdt1 should be degraded. Thus, Cdt1 should be present in cells that are negative for cyclin A, and absent in cells that are positive for cyclin A ([Nishitani et al, 2006]; [Xouri et al., 2007a], [2007b]). Cdt1 degradation after the onset of the S phase is carried out by two ubiquitin ligases, CRL1^Skp2 and CRL4^Cdt2. We depleted the substrate recognition subunits, Cdt2 and/or Skp2, by siRNA, and the percentage of Cdt1 positive cells among cyclin A–positive cells was assessed by immunofluorescence. […]
Figure 8. […] The frequency of Cdt1-positive (+) cells among cyclin A–positive (+) cells was calculated (n = 3). […] (D) Cells treated with siCdt2 or control siLuc were measured for their nuclear size (n = 200 for each), and are shown in a scatter plot. […]
For Western blotting, whole-cell lysates were prepared by lysing cell pellets directly in SDS–PAGE buffer. […] Protein levels were analysed by ImageJ software.
Double-stranded RNAs were transfected at 100 nM using Oligofectamine (Invitrogen) or HiPerFect (QIAGEN). […] For Cdt1 silencing in Fig 1A and B, unsychronized HeLa cells were transfected twice with 200 nM of Cdt1 siRNA or control luciferase siRNA using Lipofectamine 2000 with a time interval of 24 h and were analysed 48 h after the second transfection. […]

[4] = GFP-tagged, site of UV-C damage (50 J/m^2), 20 min after irradiation

Row | Molecule | half-recovery time [1, 4] [s] | immobile fraction [1, 4] [%] | FRAP binding kinetics at damage sites after Cdt1 depletion ([1]; MCF7 synchronized in G1, siCdt1 versus siLuc, Fig 1D) | recovery in chromatin-containing fraction [2] | rescue of Cdt1 degradation in cell cycle [3]
1 | Cdt2: Cdt2 tagged with GFP, transiently expressed in MCF7 cells | 0.83 | 16 | remain the same despite the absence of Cdt1 | recovered in a chromatin-containing fraction | fully complemented the depletion of Cdt2, and also the co-depletion of Skp2
2 | B1 |  |  |  | undetectable | not fully rescued
